How the values were obtained:
[1] = test system: RSV-B, genotype B, strain 9320; test: RSV-B assay: A549 cells infected with RSV-B, qPCR or ATPlite readout; format: cell-based, Human respiratory syncytial virus (HRSV); conditions: human respiratory syncytial virus, A549, read-out: Human RSV-B EC50
Text: Hep-2 cells, (originally derived from tumors grown in irradiated-cortisonised weanling rats that had been injected with epidermoid carcinoma tissue from a person's larynx, but later found to be indistinguishable from HeLa cells by PCR DNA analysis), were used for the culturing of genotype B, strain 9320. Flasks were inoculated with RSV-B and viral stocks were collected once cytopathic effect (CPE) was greater than […]. Viral stocks in 25% o sucrose media were snap frozen using liquid nitrogen to increase viral stability. Viral stock titers were quantified by tissue culture infectious dose 50% o (TCID50) using 8,000 cells per well and 5-fold viral dilutions across a 96-well plate, cultured for 4 days. Viral stock titers were also quantified by a plaque forming unit assay, as described elsewhere.
The assay is run as follows: A549 cells (originally derived through explant culture from a person's carcinomatous lung tissue) are seeded into the inner 60 wells of a 96-well plate at 3,000 cells per well in a volume of 50 μL using A549 growth media (F-12K Media, 1% Penn/Strep, 1% nonessential amino acids, 10% heat-inactivated FBS). 2-fold serial dilutions of control and test compounds are added to the wells in duplicate in a total volume of 25 μL. Viral stock is then added to the wells at a multiplicity of infection (MOI) of 0.5 in a volume of 25 μL, bringing the total volume of each well to 100 μL. The MOI is calculated using the PFU/mL, or TCID50 if unavailable. Each 96-well plate has a control column of 6 wells with cells and virus but no compound (negative control, max CPE), a column with cells but no compound or virus (positive control, minimum CPE), and a column with no cells or virus or compound (background plate/reagent control). The control wells with cells but no virus are given an additional 25 uL of growth media containing an equal quantity of sucrose as those wells receiving the viral stock in order to keep consistent in media and volume conditions. The outer wells of the plate are filled with 125 μL of moat media (DMEM, 1% Penn/Strep) to act as a thermal and evaporative moat around the test wells. 6 days post infection, the plates are read using qPCR or ATP lite (50 uL added per well), which quantifies the amount of ATP (a measure of cell health) present in each well. Assay plates treated with APTlite are read using the Envision luminometer. […] EC50 ranges are as follows: A<0.4 μM; B 0.4-0.8 μM; C>0.8 μM.

[2] = Cytotoxicity on parallel plate without virus, ATPlite readout; format: cell-based; conditions: human, Hep-2 cells (no virus), Hep-2 cells without virus, 5-day incubation
Protocol: Following extensive parameter testing, the final assay is run as follows: Hep-2 cells are seeded into the inner 60 wells of a 96-well plate at 8,000 cells per well in a volume of 50 μL using Growth Media (DMEM without phenol red, 1% L-Glut, 1% Penn/Strep, 1% nonessential amino acids, 10% heat-inactivated FBS). 2-fold serial dilutions of control and test compounds are added to the wells in duplicate in a total volume of 25 μL. Viral stock is then added to the wells at a multiplicity of infection (MOI) of 0.1 in a volume of 25 μL, bringing the total volume of each well to 100 μL. The MOI is calculated using the PFU/mL, or TCID50 if unavailable. Each 96-well plate has a control column of 6 wells with cells and virus but no compound (negative control, max CPE), a column with cells but no compound or virus (positive control, minimum CPE), and a column with no cells or virus or compound (background plate/reagent control). The control wells with cells but no virus are given an additional 25 uL of growth media containing an equal quantity of sucrose as those wells receiving the viral stock in order to keep consistent in media and volume conditions. The outer wells of the plate are filled with 125 μL of moat media (DMEM, 1% Penn/Strep) to act as a thermal and evaporative moat around the test wells. Following a 5-day incubation period, the plates are read using ATPlite (50 uL added per well), which quantifies the amount of ATP (a measure of cell health) present in each well. Assay plates are read using the Envision luminometer. In parallel, cytotoxicity is examined on an additional 96-well plate treated in an identical manner, but substituting the 25 μL of viral stock for 25 μL of growth media. […] EC50 ranges are as follows: A<0.4 μM; B 0.4-0.8 μM; C>0.8 μM and CC50 ranges are as follows: A>50 μM; B 10-50 μM; C<10 μM.

[3] = test system: Human RSV-A (“Long” strain); test: RSV-A assay: inhibition of cytopathic effect in Hep-2 cells, ATPlite readout; format: cell-based, Human respiratory syncytial virus (HRSV); conditions: human respiratory syncytial virus, HEp-2, 120 h, read-out: Human RSV-A (“Long” strain) EC50
Method in brief: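 Hep-2 cells (8,000/well) were infected with RSV-A Long at MOI 0.1 alongside duplicate 2-fold compound dilutions. After 5 days, cell viability was read by ATPlite luminescence to give EC50. CC50 came from a parallel plate without virus.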

Row | Compound | EC50 [1] [nM] | CC50 at 5 days [2] [nM] | EC50 [3] [nM]
1 | O=C1Nc2ccccc2C(c2ccccc2)=N[C@@H]1Nc1nnc(-c2ccc(F)cc2)o1 [Example 7a] | > 800 | > 50000 | 400 to 800
2 | N#Cc1cnc(-c2nnc(N[C@H]3N=C(c4ccccc4)c4ccccc4NC3=O)o2)c(N2CC3CCC(C2)O3)c1 [Example 304] | < 400 |  | < 400
3 | O=C1Nc2ccccc2C(c2ccccc2)=N[C@@H]1Nc1nnc(-c2ncc(Br)cc2N2CCOCC2)o1 [Example 168] | < 400 |  | < 400
4 | Cc1nc(N2CCOCC2)c(-c2nnc(N[C@H]3N=C(c4ccccc4)c4ccccc4NC3=O)o2)cc1C#N [Example 158] | < 400 |  | < 400
5 | O=C1Nc2ccccc2C(c2ccccc2)=NC1Nc1nnc(-c2ccc(-n3cccn3)cc2)[nH]1 (stereo not drawn) [Example 364] | 400 to 800 |  | < 400
6 | N#Cc1ccc(-c2nnc(N[C@H]3N=C(c4ccccc4)c4ccccc4NC3=O)o2)c(N2CCOCC2)n1 [Example 153] | < 400 |  | < 400
7 | Cn1c(N2CCOCC2)c(-c2nnc(N[C@H]3N=C(c4ccccc4)c4ccccc4NC3=O)o2)ccc1=O [Example 155] | < 400 |  | < 400

Reference: patent US11390631B1, “Benzodiazepine derivatives as RSV inhibitors” (priority 2015, dated 2022)
